Source: patent US20170044208A1, “SELECTIVE GLUCOCORTICOID RECEPTOR LIGANDS” (The University of Manchester, priority 2013, published 2017)
Read-outs that look alike come from different tables or passages of the source.

Key:
[1] = target: T1, Glucocorticoid Receptor (GR) (Homo sapiens, UniProt P04150); test: Transactivation assay (MMTV-Luc reporter in HeLa cells); type: cell-based; details: for Emax / EC50: HeLa; for Emax: 16 h, read-out: TA Max %; for EC50: concentration for half-maximal transactivation, MMTV-Luc, 16 hours, mean, read-out: TA EC50; for TA %: comparison table, against maximal activation seen with dexamethasone
T1 construct: Cells were transfected the next day with MMTV-Luc (5 μg) and pGL4-hRLuc (0.1 μg); endogenous in cells; host or cells: HeLa
T1 sequence (P04150 1-777): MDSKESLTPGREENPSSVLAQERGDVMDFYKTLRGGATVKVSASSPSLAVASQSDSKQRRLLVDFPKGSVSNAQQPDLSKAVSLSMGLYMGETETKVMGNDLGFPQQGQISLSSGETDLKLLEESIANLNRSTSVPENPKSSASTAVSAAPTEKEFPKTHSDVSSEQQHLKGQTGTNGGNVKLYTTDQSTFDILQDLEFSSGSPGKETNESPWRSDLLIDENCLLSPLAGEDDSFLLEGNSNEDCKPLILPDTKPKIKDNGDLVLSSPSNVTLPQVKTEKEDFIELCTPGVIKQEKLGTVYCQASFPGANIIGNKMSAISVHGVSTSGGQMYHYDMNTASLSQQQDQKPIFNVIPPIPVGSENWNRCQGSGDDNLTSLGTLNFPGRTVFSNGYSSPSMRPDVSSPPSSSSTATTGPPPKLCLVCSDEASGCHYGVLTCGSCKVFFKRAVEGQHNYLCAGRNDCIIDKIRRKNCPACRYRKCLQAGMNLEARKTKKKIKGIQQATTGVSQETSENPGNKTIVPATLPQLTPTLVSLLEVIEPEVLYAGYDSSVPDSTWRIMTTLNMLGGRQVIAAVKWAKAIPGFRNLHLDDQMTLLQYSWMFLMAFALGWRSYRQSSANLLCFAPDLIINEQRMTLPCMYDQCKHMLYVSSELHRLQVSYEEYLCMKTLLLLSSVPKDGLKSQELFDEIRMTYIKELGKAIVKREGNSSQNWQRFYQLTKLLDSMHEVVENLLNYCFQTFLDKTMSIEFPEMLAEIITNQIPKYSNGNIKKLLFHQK
Procedure: (§1) HeLa cells were seeded at 80×10^4 cells/dish in 100 mm dishes. Cells were transfected the next day with MMTV-Luc (5 μg) and pGL4-hRLuc (0.1 μg), in 250 μL of Opti-MEM I using FuGENE HD (15 μL). After 24 hours, cells were trypsinized and seeded into 96-well plates at a density of 8-10×10^4 cells/mL.
Following overnight incubation to allow attachment, cells were treated with the required concentration of compounds, then further incubated for 16 hours. Media was aspirated and cells lysed in 40 μL of 1×PLB.
(§2) Firefly and Renilla luciferase activity was measured using the Dual Luciferase Reporter system following the manufacturer's protocol.
(§3) IC50 and EC50 values were calculated by using GraphPad Prism 5.0. Briefly, luminescence values for luciferase were normalised using the Renilla luminescence values. The normalised values were input into GraphPad Prism 5.0. Non-linear regression analysis was carried out using the “log(concentration) vs. response” equation of the software, with a Hill slope coefficient fixed at 1.
(§4) IC50 and EC50 values are mean values in nM of all IC50/EC50 values for the compound. Max % values are mean values of the Max% activity.

NFkB = test: Transrepression assay (NFκB-LUC reporter in HeLa cells, TNF stimulated); type: cell-based; details: for Emax / IC50: Homo sapiens, HeLa; for Emax: 16 h, read-out: TR Max %; for TR %: maximal NFkB repression compared to Dexamethasone
Procedure: as §1, with “NFκB-LUC reporter” for “MMTV-Luc”, “0.25 mL” for “250 μL”, “in to 24-well” for “into 96-well”, “cells/mL. Following overnight incubation, cells were starved for a further 24 hours in DMEM.” for “cells/mL.”
On the day of the experiment, compounds were added to cells one hour prior to the addition of […] (0.5 ng/mL). After a further 16 hours, cells were washed twice with ice-cold PBS, then lysed with 100 μL of 1×PLB.
as §2, §3, §4

[2] = concentration for half-maximal repression of NFkB, TNF 0.5 ng/mL, 16 hours, mean, read-out: TR IC50
[3] = comparison table, half-maximal repression of NFkB, multiple experiments, read-out: IC50

SMILES	Emax [1] [%]	EC50 [1] [nM]	Emax (NFkB) [%]	IC50 (NFkB; [2]) [nM]	TA % [1] [%]	IC50 (NFkB; [3]) [nM]	TR % (NFkB; comparison table) [%]
COc1cccc(OCCCNC(=O)[C@@]2(O)[C@H](C)C[C@H]3[C@@H]4CCC5=CC(=O)C=C[C@]5(C)[C@@]4(F)[C@@H](O)C[C@@]32C)c1 [Compound 15]	20.8	1230	79.7	3.53	–	–	–
COc1ccc(OCCCNC(=O)[C@@]2(O)[C@H](C)C[C@H]3[C@@H]4CCC5=CC(=O)C=C[C@]5(C)[C@@]4(F)[C@@H](O)C[C@@]32C)cc1OC [Compound 16]	21.2	881	87.2	26.8	–	–	–
COC(=O)c1ccc(OCCCNC(=O)[C@@]2(O)[C@H](C)C[C@H]3[C@@H]4CCC5=CC(=O)C=C[C@]5(C)[C@@]4(F)[C@@H](O)C[C@@]32C)cc1 [Compound 17]	39.1	832	82.3	1.19	39	1.19	87
COc1ccc(OCCCCNC(=O)[C@@]2(O)[C@H](C)C[C@H]3[C@@H]4CCC5=CC(=O)C=C[C@]5(C)[C@@]4(F)[C@@H](O)C[C@@]32C)cc1 [Compound 18]	26.3	669	82.1	6.83	26	5.96	84
C[C@@H]1C[C@H]2[C@@H]3CCC4=CC(=O)C=C[C@]4(C)[C@@]3(F)[C@@H](O)C[C@]2(C)[C@@]1(O)C(=O)NCCCOc1ccc(C(=O)O)cc1 [Compound 19]	0.84	406000	33.3	1450	–	–	–
C[C@@H]1C[C@H]2[C@@H]3CCC4=CC(=O)C=C[C@]4(C)[C@@]3(F)[C@@H](O)C[C@]2(C)[C@@]1(O)c1csc(NC(=O)c2ccc(F)cc2)n1 [Compound 23]	5.67	1400	52.1	35.8	6	35.8	52
C[C@@H]1C[C@H]2[C@@H]3CCC4=CC(=O)C=C[C@]4(C)[C@@]3(F)[C@@H](O)C[C@]2(C)[C@@]1(O)c1csc(NC(=O)Cc2ccc(F)cc2)n1 [Compound 24]	2.63	7690	79	5.96	–	–	–
C[C@@H]1C[C@H]2[C@@H]3CCC4=CC(=O)C=C[C@]4(C)[C@@]3(F)[C@@H](O)C[C@]2(C)[C@@]1(O)c1csc(NCc2ccccc2)n1 [Compound 25]	1.92	3930	79	29.1	–	–	–
C[C@@H]1C[C@H]2[C@@H]3CCC4=CC(=O)C=C[C@]4(C)[C@@]3(F)[C@@H](O)C[C@]2(C)[C@@]1(O)c1csc(NC(=O)c2cccc(F)c2)n1 [Compound 26]	3.9	1530	44.1	8.22	–	–	–
C[C@@H]1C[C@H]2[C@@H]3CCC4=CC(=O)C=C[C@]4(C)[C@@]3(F)[C@@H](O)C[C@]2(C)[C@@]1(O)c1csc(NC(=O)c2ccc(Cl)cc2)n1 [Compound 27]	5.89	1640	49.7	10.9	–	–	–
C[C@@H]1C[C@H]2[C@@H]3CCC4=CC(=O)C=C[C@]4(C)[C@@]3(F)[C@@H](O)C[C@]2(C)[C@@]1(O)c1csc(NC(=O)c2ccccc2F)n1 [Compound 28]	0	29400	36	120	–	–	–
COc1cccc(C(=O)Nc2nc([C@@]3(O)[C@H](C)C[C@H]4[C@@H]5CCC6=CC(=O)C=C[C@]6(C)[C@@]5(F)[C@@H](O)C[C@@]43C)cs2)c1 [Compound 29]	0.67	19400	44.2	7.96	–	–	–
C[C@@H]1C[C@H]2[C@@H]3CCC4=CC(=O)C=C[C@]4(C)[C@@]3(F)[C@@H](O)C[C@]2(C)[C@@]1(O)c1csc(NC(=O)c2ccc(C(F)(F)F)cc2)n1 [Compound 30]	7.43	1410	41.3	35.5	–	–	–
C[C@@H]1C[C@H]2[C@@H]3CCC4=CC(=O)C=C[C@]4(C)[C@@]3(F)[C@@H](O)C[C@]2(C)[C@@]1(O)c1csc(NC(=O)c2ccncc2)n1 [Compound 31]	0	–	37.5	11.2	–	–	–
C[C@@H]1C[C@H]2[C@@H]3CCC4=CC(=O)C=C[C@]4(C)[C@@]3(F)[C@@H](O)C[C@]2(C)[C@@]1(O)c1csc(NC(=O)c2cccnc2)n1 [Compound 32]	0.03	2230	28.5	55.2	–	–	–
C[C@@H]1C[C@H]2[C@@H]3CCC4=CC(=O)C=C[C@]4(C)[C@@]3(F)[C@@H](O)C[C@]2(C)[C@@]1(O)c1csc(NC(=O)c2ncco2)n1 [Compound 33]	0	–	32.7	66.9	–	–	–
COc1ccc(C(=O)Nc2nc([C@@]3(O)[C@H](C)C[C@H]4[C@@H]5CCC6=CC(=O)C=C[C@]6(C)[C@@]5(F)[C@@H](O)C[C@@]43C)cs2)cc1 [Compound 34]	0	17500	51.8	4.76	–	–	–
C[C@@H]1C[C@H]2[C@@H]3CCC4=CC(=O)C=C[C@]4(C)[C@@]3(F)[C@@H](O)C[C@]2(C)[C@@]1(O)c1csc(NC(=O)c2cncs2)n1 [Compound 35]	0.23	4180	35.9	44.8	–	–	–
C[C@@H]1C[C@H]2[C@@H]3CCC4=CC(=O)C=C[C@]4(C)[C@@]3(F)[C@@H](O)C[C@]2(C)[C@@]1(O)c1csc(NC(=O)c2cscn2)n1 [Compound 36]	1.19	5520	33.6	10.6	–	–	–
C[C@@H]1C[C@H]2[C@@H]3CCC4=CC(=O)C=C[C@]4(C)[C@@]3(F)[C@@H](O)C[C@]2(C)[C@@]1(O)c1csc(NC(=O)c2ccc[nH]2)n1 [Compound 37]	3.22	2770	31.4	17.9	–	–	–
C[C@@H]1C[C@H]2[C@@H]3CCC4=CC(=O)C=C[C@]4(C)[C@@]3(F)[C@@H](O)C[C@]2(C)[C@@]1(O)c1csc(NC(=O)CCc2ccc(F)cc2)n1 [Compound 38]	2.48	24400	65.5	31.2	–	–	–
C[C@@H]1C[C@H]2[C@@H]3CCC4=CC(=O)C=C[C@]4(C)[C@@]3(F)[C@@H](O)C[C@]2(C)[C@@]1(O)c1csc(NC(=O)c2ccc3ncsc3c2)n1 [Compound 39]	0.96	1160	19	8.34	–	–	–
C[C@@H]1C[C@H]2[C@@H]3CCC4=CC(=O)C=C[C@]4(C)[C@@]3(F)[C@@H](O)C[C@]2(C)[C@@]1(O)c1csc(NC(=O)c2ccccn2)n1 [Compound 40]	1.34	16900	19	8.34	–	–	–
C[C@@H]1C[C@H]2[C@@H]3CCC4=CC(=O)C=C[C@]4(C)[C@@]3(F)[C@@H](O)C[C@]2(C)[C@@]1(O)c1csc(NC(=O)c2cnco2)n1 [Compound 41]	1.27	10300	26	41.8	–	–	–
